Experimental data reported in publication PMC9885069 (Scientific Reports, 2023).
“Also recorded” adds a separate entry of the source. Where two headings read alike, the source gives them in different places.

Assays:
[1] = test system: 01SD NPC cultures; assay: Cytotoxicity in uninfected NPC cultures, flow cytometry with fixable viability dye; conditions: uninfected 01SD NPCs; for cell viability of treated cultures: concentrations up to 50 μM
[2] = test system: SARS-CoV-2 (isolate USA WA1/2020); assay: NIH-NIAID in vitro SARS-CoV2 viral replication assay in Calu3 cells; assay type: cell-based; conditions: for therapeutic selectivity: CC50/IC50 in Calu3 cells
[3] = test system: fibroblasts, hepatocytes, iPSC-derived neural progenitor cells; set-up: method as in PMID 30413769; conditions: cited from earlier work
[4] = test system: HSV-1; assay type: cell-based; conditions: 10 μM; for reduction of the percentage of EGFP+-RFP+ cells compared to infected cells exposed to vehicle: MOI 0.1, day 3 p.i.; for anti-HSV-1 activity in NPCs: 01SD and 9001 NPCs, day 3 p.i.
[5] = test system: HSV-1; conditions: cited from earlier work
[6] = Toxicity (cell number) in Calu3 cells in the SARS-CoV-2 assay; assay type: cell-based; conditions: human, Calu3 (ATCC, HTB-55) cells infected with SARS-CoV-2, 48 h post-infection
[7] = test system: eIF2α phosphorylation on serine 51; assay: Immunocytochemistry of eIF2α phosphorylated on serine 51 in NPCs; assay type: cell-based, human; conditions: 9001 NPCs, 10 μM, 24 h, compared to untreated or 7-treated NPCs
Description: The RNA sequencing data is thus fully consistent with the hypothesis that 2b and 8 trigger a host antiviral response by activating an ISR.
Figure 8 Activation of the integrated stress response in 2b- and 8-treated NPCs. (A) NPCs derived from 9001 iPSC lines were exposed to compounds 7, 8, and 2b (10 μM). After 24 h, cells were fixed and stained with an antibody that detects eIF2α phosphorylated on Serine 51 (EIF2S1). Nuclei were counterstained with Hoechst 33342, and phosphorylation was assessed by fluorescence microscopy. (B) The corrected total cell fluorescence (CTCF) was obtained by measuring EIF2S1 fluorescence in cells where a fluorescent signal could be detected and normalizing for cellular area using equation CTCF = integrated density − (cellular area × mean fluorescence of background readings). Error bars are standard deviations. One-way analysis of variance (ANOVA) followed by Bonferroni post-hoc test was used to compare CTCF among the different conditions: ** (P = 0.0042); **** (P < 0.0001). (C,D) Up-regulation of the EIF2A kinase EIF2AK3 (C) and the activated transcription factor 4 (ATF4) (D) in 2b- and 8-treated NPCs. Fold-changes were calculated from RNA-seq data described in the methods section. (E) Proposed mechanism of action of 2b and 8.

[8] = test system: HSV-1; assay: microbe, parasite or virus in culture; assay type: cell-based; conditions: for inhibition of HSV-1 infection (EGFP and RFP reporter expression) in brain organoids: 9001 and 01SD fourteen-week old organoids, 6000 pfu/organoid, compounds 10 μM, ACV 50 μM, day 3 p.i.
[9] = test system: host cell gene expression in 02SF NPCs; assay: RNA sequencing and Ingenuity Pathway Analysis of uninfected NPCs; assay type: cell-based, human; conditions: 10 μM
[10] = cited from earlier work
[11] = test system: human brain organoids; assay: Organoid viability, calcein AM assay; assay type: cell-based; set-up: organoid viability: dose or concentration left out as unconfirmed
Description: Sixteen-week old brain organoids were infected as described above and exposed after 2 h to increasing 8 concentration ranging from 0.01 to 50 μM. At day 3 p.i. the IC50 of 8 was determined by measuring the intensity of the fluorescent reporter gene EGFP (whose expression is under the control of promoter of the immediate early HSV-1 gene ICP0) in the infected organoids was investigated. The EGFP expression was used as a proxy for viral gene expression during early stages of HSV-1 acute infection.
Figure 6 Antiviral efficacy and cytotoxicity of 8 against HSV-1 in human brain organoids. […] The IC50 was estimated by determining the corrected total cell fluorescence (CTCF) obtained by measuring EGFP fluorescence in organoids using ImageJ and normalizing for background using equation CTCF = integrated density − (area of the organoid × mean fluorescence of background readings). (B) Cytotoxicity of 8 without HSV-1 infection was assessed using calcein-AM. The fluorescence of calcein-AM in each organoid was measured and CTCF was determined as described above. […] 9001 and 01SD are printed as plot headings and were read as the test systems (organoid lines), not as substances. […]
Organoids viability was analyzed using calcein AM assay (BioLegend; catalogue # 425201), according to manufacturer’s instructions. […]

[12] = test system: HSV-1 strain 17syn+; assay: Mouse ocular model of HSV-1 infection, plaque assay of eye swabs; assay type: in vivo, ND4 Swiss mice
Description: The antiviral efficacy of compound 8 was further investigated and confirmed in an in vivo mouse model. ND4 Swiss mice were infected in the eyes with HSV-1 following light corneal scarification as described in the Materials and Methods section. At the same time that the virus was applied, one group of mice (n = 10) were treated a 50uM solution of compound 8 in DMSO and the other group (n = 10) were treated DMSO (vehicle). The eyes were treated with either vehicle or compound 8 each day for 4 days. The eyes were swabbed daily and infectious virus shedding was assessed by standard plaque assay.
Figure 9 In vivo antiviral activity. ND4 swiss mice were infected by corneal scarification with 1 × 10^5 pfu of HSV-1 strain 17syn+. Eyes were swabbed daily for 4 days and assayed for infectious virus by standard plaque assay.
ND4 Swiss mice, 4–6 weeks of age, (Envigo labs) were infected by the ocular route. Mice were anesthetized with isoflurane and the cornea were lightly scarified with a 23 ga. needle. 1 × 10^5 pfu (in 5 µl) of HSV-1 strain 17syn+ was applied to the corneal surface. At the same time, one group of mice (n = 10) were treated with 2 µL of a 50 µM solution of compound 8 in DMSO and the other group (n = 10) were treated with 2 µL DMSO (vehicle), applied to the eyes. The eyes were treated with either vehicle or compound 8 each day for 4 days. In order to assess the effect of compound 8 on the course of the infection, the eyes were swabbed daily with a Dacron swab, and the virus eluted in MEM medium. The swab eluate was assessed for the presence of infectious virus by standard plaque assay on rabbit skin cell monolayers.

## Nc1nc2c(ncn2COCCO)c(=O)[nH]1 [ACV, acyclovir]
[1]
  cell viability of treated cultures: comparable

## O=C1N[C@H]2[C@H](O)[C@H](O)[C@@H](O)C[C@@H]2c2cc3c(cc21)OCO3 [Compound 2b, trans-dihydrolycoricidine, reference compound]
[2]
  therapeutic selectivity: 19
[3]; fibroblasts and hepatocytes
  toxicity in comparison to acyclovir: Slightly higher toxicity
[3]; iPSC-derived neural progenitor cells (NPCs)
  toxicity in comparison to acyclovir: lower toxicity
[4]; 01SD NPCs
  reduction of the percentage of EGFP+-RFP+ cells compared to infected cells exposed to vehicle: 8016 fold
[4]; 9001 NPCs
  reduction of the percentage of EGFP+-RFP+ cells compared to infected cells exposed to vehicle: 424 fold
[5]; compared with acyclovir (ACV)
  inhibition of HSV-1 replication: more efficaciously than acyclovir
[5]; ex vivo mouse model
  HSV-1 reactivation from latency: prevents HSV-1 reactivation from latency
[5]; tk- strain and PAAv strain
  potency against HSV-1 strains resistant to ACV: moderate potency
[6]
  CC50 at 48 h: 3480 nM
[1]
  concentration from which a reduction in cell viability was observed: ≥ 25 µM
[7]
  eIF2α ~ P immunoreactivity: increased
[8]
  inhibition of HSV-1 infection (EGFP and RFP reporter expression) in brain organoids: no expression of EGFP and RFP reporter genes
[9]
  expression of activated transcription factor 4 (ATF4) (RNA-seq): Up-regulation
  expression of the EIF2A kinase EIF2AK3 (RNA-seq): Up-regulation

## O=C1N[C@H]2[C@H](O)[C@H](O)[C@@H](O)CN2c2cc3c(cc21)OCO3 [Compound 4]
[10]
  antiviral activity: totally devoid of antiviral activity

## COc1ccc2c(c1)[C@H]1C[C@H](O)[C@@H](O)[C@@H](O)[C@@H]1NC2=O [Compound 5, (2S,3R,4S,4aR,10bR)-2,3,4-Trihydroxy-9-methoxy-1,3,4,4a,5,10b-hexahydrophenanthridin-6(2H)-one]
[4]
  anti-HSV-1 activity in NPCs: no anti-HSV-1 activity

## O=C1N[C@H]2[C@H](O)[C@H](O)[C@@H](O)C[C@@H]2c2cc(O)ccc21 [Compound 6, (2S,3R,4S,4aR,10bR)-2,3,4,9-Tetrahydroxy-1,3,4,4a,5,10b-hexahydrophenanthridin-6(2H)-one]
[4]
  anti-HSV-1 activity in NPCs: no anti-HSV-1 activity
[8]
  inhibition of HSV-1 infection (EGFP and RFP reporter expression) in brain organoids: no anti-HSV-1 activity

## COc1cccc2c1C(=O)N[C@H]1[C@H](O)[C@H](O)[C@@H](O)C[C@H]21 [Compound 7, (2S,3R,4S,4aR,10bR)-2,3,4-Trihydroxy-7-methoxy-1,3,4,4a,5,10b-hexahydrophenanthridin-6(2H)-one]
[4]
  anti-HSV-1 activity in NPCs: no anti-HSV-1 activity
[8]
  inhibition of HSV-1 infection (EGFP and RFP reporter expression) in brain organoids: no anti-HSV-1 activity

## O=C1N[C@H]2[C@H](O)[C@H](O)[C@@H](O)C[C@@H]2c2cccc(O)c21 [Compound 8, (2S,3R,4S,4aR,10bR)-2,3,4,7-Tetrahydroxy-1,3,4,4a,5,10b-hexahydrophenanthridin-6(2H)-one]
[11]
  organoid viability: No significant reduction
[11]; without HSV-1 infection, concentrations up to 50 μM
  organoid viability (calcein AM): No significant reduction; also recorded: No significant differences in cell viability
[2]
  therapeutic selectivity: 20
[4]; 01SD NPCs
  reduction of the percentage of EGFP+-RFP+ cells compared to infected cells exposed to vehicle: 6.76 fold
[4]; 9001 NPCs
  reduction of the percentage of EGFP+-RFP+ cells compared to infected cells exposed to vehicle: 4.65 fold
[6]
  CC50 at 48 h: 1920 nM
[1]
  cell viability of treated cultures: comparable
[7]
  eIF2α ~ P immunoreactivity: increased
[8]
  inhibition of HSV-1 infection (EGFP and RFP reporter expression) in brain organoids: no expression of EGFP and RFP reporter genes
[8]; Human alphaherpesvirus 1, 72 h, read-out: IC50 of HSV-1 infection (EGFP intensity), 01SD organoids, sixteen-week old, day 3 p.i.
  IC50: 209 nM
[8]; Human alphaherpesvirus 1, 72 h, read-out: IC50 of HSV-1 infection (EGFP intensity), 9001 organoids, sixteen-week old, day 3 p.i.
  IC50: 504 nM
[8]; Human alphaherpesvirus 1, read-out: IC50 (EGFP CTCF), printed in Figure 6A, 01SD organoids
  IC50: 209 nM
[8]; Human alphaherpesvirus 1, read-out: IC50 (EGFP CTCF), printed in Figure 6A, 9001 organoids
  IC50: 504 nM
[9]
  expression of activated transcription factor 4 (ATF4) (RNA-seq): Up-regulation
  expression of the EIF2A kinase EIF2AK3 (RNA-seq): Up-regulation
[12]; mouse eyes, 50 µM solution in DMSO, daily for 4 days
  yield of infectious virus in the tears (HSV-1 shedding) compared to vehicle treated eyes: dramatically reduced; also recorded: dramatically reduces HSV-1 shedding
[12]; mouse eyes, 50 µM solution in DMSO, daily for 4 days, vs vehicle
  reduction of peak titer of infectious virus: reduced almost threefold
[12]; mouse eyes, 50 µM solution in DMSO, daily for 4 days, listed as 7-hydroxyl derivative
  yield of infectious virus in the tears (HSV-1 shedding) compared to vehicle treated eyes: dramatically reduced HSV-1 shedding
[12]; vehicle peak at day 2 post-infection
  delay of peak titer of infectious virus: delayed by one day

## CCC(CC)COC(=O)[C@H](C)N[P@](=O)(OC[C@H]1O[C@@](C#N)(c2ccc3c(N)ncnn23)[C@H](O)[C@@H]1O)Oc1ccccc1 [remdesivir]
[2]; Severe acute respiratory syndrome coronavirus 2, Calu-3, Calu3 cells, MOI=0.5, 2 h pretreatment, 48 h post-infection, read-out: IC50 (infection, dsRNA+ cells/total cell number)
  IC50: 60 nM
